Experimental data from publication PMC12321279, “Novel 4,5‐Dihydrothiazole‐Phenylpiperazine Derivatives: Synthesis, Docking Studies and Pharmacological Evaluation as Serotonergic Agents” (Chemmedchem, 2025).

Legend:
larval zebrafish [1] = experiment: Light–dark transition assay in larval zebrafish; format: in vivo, zebrafish (Danio rerio); settings: 5 dpf larvae, 20 h incubation at maximum‐tolerated concentration (FG‐1 500 μM, FG‐18 25 μM)
Method: (§1) All experiments were conducted on zebrafish (Danio rerio) larvae up to 5 days post fertilization (dpf), therefore, in accordance with current European legislation, ethical permission to conduct assays was not required. However, housing and experimental procedures were performed in compliance with the National Institute of Health Guidelines for the Care and Use of Laboratory Animals and the European Union Directive of 22 September 2010 (2010/63/EU) on protecting animals used for scientific purposes. All efforts were taken to minimize larvae stress and suffering. Larvae were euthanized with an overdose of tricaine ([…]). […] Before the respective behavioral tests were conducted, larvae at 4 dpf were incubated for 20 h in different arylpiperazine derivatives solutions of maximum‐tolerated concentrations (MCTs), determined during toxicological screening.^[ [30], [32] ^] […] Basic locomotor activity was measured using an automated tracking device, Daniovision by Noldus, and the total distance traveled was quantified using EthoVision XT software of the same company (Wageningen, the Netherlands) over a 30 min long observation period. […] The PTZ‐induced hyperlocomotion (acute seizure assay) was assessed in 5 dpf larval zebrafish (after 20 h incubation with tested derivatives at MCTs). […] Similarly, the data were recorded as the distance traveled (mm) by larvae when exposed to alternating lightning. […]

larval zebrafish [2] = experiment: PTZ‐induced acute seizure assay in larval zebrafish; format: in vivo, zebrafish (Danio rerio); settings: 5 dpf larvae, 20 h incubation at maximum‐tolerated concentration (FG‐1 500 μM, FG‐18 25 μM), PTZ 20 mM, 30 min
Method: as §1

mice = experiment: Novel object recognition (NOR) test; format: in vivo; settings: doses of 30 and 15 mg kg^−1 i.p. 60 min prior to first trial
Method: The tests were performed on male white mice of the Albino Swiss strain, whose weight was between 24 and 30 g in Experimental Medicine Center, Medical University of Lublin, Poland. The animals were housed (four/five per cage). Before conducting the experimental tests, the animals were subjected to an adaptation that lasted seven days. This consisted of keeping them in a room with relatively constant conditions: a temperature of 22 ± 1 °C, a humidity of 55 ± 5% and lighting that mimicked the natural day and night rhythm (12 h/12 h). Constant access to food and water was provided. Standard feed—LSM Motycz pelleted feed—and tap water were used. Mice were randomly allocated to study groups. Each group was represented by 8–10 animals, depending on the research schedule. […]
The setup for the NOR test consisted of a square, open‐ended Plexiglas box (46 cm long × 35 cm high × 33 cm wide), with a 10‐lux light source suspended 50 cm above it. […] The duration of exploration of each object at T1, T2, and T3 was manually recorded using a stopwatch. The discrimination between F and N during T2 or T3 was assessed by comparing the time spent exploring each of them. Memory performance was assessed using the DI, calculated as (N − F)/ (N + F), representing the difference in exploration time between N and F, normalized by the total exploration time for both objects. […]

SMILES | larval behavior under the dark conditions (light–dark transition) (larval zebrafish [1]) | distance traveled by PTZ‐exposed larvae (seizure‐like behavior) (larval zebrafish [2]) | NOR test, memory consolidation expressed by the discrimination index (DI) (mice)
O=C(NCCCN1CCN(c2ccccc2C2=NCCS2)CC1)c1ccccn1 [FG‐1, N‐(3‐(4‐(2‐(4,5‐dihydrothiazol‐2‐yl) phenyl) piperazin‐1‐yl) propyl) picolinamide] | influenced larval behavior under the dark conditions | substantially decreased | 
O=C1C2C3C=CC(C3)C2C(=O)N1OCCCN1CCN(c2ccccc2C2=NCCS2)CC1 (centres unmarked) [FG‐7, 2‐(3‐(4‐(2‐(4,5‐dihydrothiazol‐2‐yl) phenyl) piperazin‐1‐yl) propoxy)‐3a,4,7,7a‐tetrahydro‐1 H‐4,7‐methanoisoindole‐1,3(2 H)‐dione] |  |  | showed activity in the novel object recognition (NOR) test
O=C(NCCCN1CCN(c2ccc(C3=NCCS3)cc2)CC1)C1CC2C=CC1C2 (stereo not drawn) [FG‐18, Endo‐ N‐(3‐(4‐(4‐(4,5‐dihydrothiazol‐2‐yl)phenyl)piperazin‐1‐yl)propyl) bicyclo[2.2.1]hept‐5‐ene‐2‐carboxamide] | influenced larval behavior under the dark conditions | significantly increased the distance traveled | 
